The test system of one test is Pr. mirabilis A-9900. Description: MIC, tube dilution, Proteus mirabilis A9900. The following applies: Proteus mirabilis A9900; overnight 37° C. The test is classed as cell-based. The text has this: (§1) Representative compounds of the present invention were subjected to in vitro antibiotic screening against a variety of microorganisms.
A further test relates to E. coli A-20341-1. Put plainly: MIC, tube dilution, Escherichia coli A20341-1. The settings on record: E. coli A20341-1; overnight 37° C. Type of test: cell-based.
Source text: as §1

Test [1] concerns Staph. aureus (Meth-Res) A-15097. Description: MIC, tube dilution, Staphylococcus aureus A15097 (Meth-Res). The settings on record: Staph. aureus A15097 (Meth-Res); overnight 37° C. The test is classed as cell-based.
Source text: as §1

The test system of a further test is Pr. vulgaris A-9716. Description: MIC, tube dilution, Proteus vulgaris / Proteus mirabilis A9716. Type of test: cell-based, Proteus vulgaris (name changed to Proteus mirabilis). The settings on record: Proteus vulgaris / Proteus mirabilis A9716; overnight 37° C.
Source text: as §1

Another test deals with Ser. marcescens A-20019. Description: MIC, tube dilution, Serratia marcescens A20019. The settings on record: Serratia marcescens A20019; overnight 37° C. The test is classed as cell-based.
Source text: as §1

Another test has as its system Staph. aureus A-9537. Description: MIC, tube dilution, Staphylococcus aureus A9537. The following applies: Staph. aureus A9537; overnight 37° C., Nutrient Broth. Type of test: cell-based.
Source text: as §1

Test [2] concerns Staph. aureus (Pen-Res) A-9606. Description: MIC, tube dilution, Staphylococcus aureus A9606 (Pen-Res). Type of test: cell-based. The following applies: Staph. aureus A9606 (Pen-Res); overnight 37° C.
Source text: as §1

Another test deals with Ent. cloacae A-9659. Description: MIC, tube dilution, Enterobacter cloacae A9659. Type of test: cell-based. The following applies: Enterobacter cloacae A9659; overnight 37° C.
Source text: as §1

For test [3], the system named is Klebsiella species A20468. Description: MIC, tube dilution, Klebsiella species A20468. The test is classed as cell-based. The following applies: Klebsiella species (K. pneumoniae) A20468; overnight 37° C.
Source text: as §1

The subject of the next test is S. aureus A9537. Put plainly: In vivo protection of mice, lethal infection with S. aureus A9537. The settings on record: Staphylococcus aureus, A9537, im, read-out: PD50. The protocol:
Representative compounds of the present invention were also tested in vivo in mice and their PD50 (dose of compound in mg/kg required to protect 50% of the treated mice against an otherwise lethal infection of a micro-organism) values determined with respect to the test organisms shown below.

The test system of the next test is E. coli A-15119. Description: MIC, tube dilution, Escherichia coli A15119. The test is classed as cell-based. The settings on record: E. coli A15119; overnight 37° C.
Source text: as §1

In test [4] the test system is Providencia stuartii A21205. Put plainly: MIC, tube dilution, Providencia stuartii (Pr. rettgeri) A21205. Type of test: cell-based. The following applies: Providencia stuartii, A21205, read-out: Minimum Inhibitory Concentration (M.I.C.).
Source text: as §1

In test [5] the test system is Staph. aureus A-9537 and 50% serum. Put plainly: MIC, tube dilution, Staph. aureus A9537 + 50% serum. Type of test: cell-based, Staphylococcus aureus. The settings on record: overnight 37° C.
Source text: as §1

A further test has as its system K. pneumoniae A-15130. Put plainly: MIC, tube dilution, Klebsiella pneumoniae A15130. The settings on record: K. pneumoniae A15130; overnight 37° C. Type of test: cell-based.
Source text: as §1

The subject of a further test is Pr. morganii A-15153. Description: MIC, tube dilution, Proteus morganii A15153. The test is classed as cell-based. The following applies: Proteus morganii A15153; overnight 37° C.
Source text: as §1

The next test concerns Str. faecalis A-20688. Description: MIC, tube dilution, Streptococcus faecalis A20688. The settings on record: Str. faecalis A20688; overnight 37° C. Type of test: cell-based.
Source text: as §1

Values joined by “and” are separate entries in the source; they are usually repeats but may differ in a detail not shown here. Equal values may be shown once.

For `O=C([O-])C1=C(Cc2ccccc2)S[C@@H]2CC(=O)N12.[Na+]` [Example 13, Sodium 2-Benzylpenem-3-carboxylate], the “Minimum Inhibitory Concentration (M.I.C.)” value in the test with Pr. mirabilis A-9900 was 2 µg/mL; in the test with E. coli A-20341-1 it was 125 µg/mL; in [1] it was 63 µg/mL; with Pr. vulgaris A-9716, 2 µg/mL; with Ser. marcescens A-20019, 32 µg/mL and 63 µg/mL; with Staph. aureus A-9537, “.13 µg/mL”. The “Minimum Inhibitory Concentration (M.I.C.)” value in [2] is 1 µg/mL; in the test on Ent. cloacae A-9659, 63 µg/mL; in test [3], 125 µg/mL; in the test on E. coli A-15119, 4 µg/mL; in [5], greater than 63 µg/mL; in the test on K. pneumoniae A-15130 it was 63 µg/mL. In addition, the “Minimum Inhibitory Concentration (M.I.C.)” value in the test with Pr. morganii A-15153 is 4 µg/mL; in the test with Str. faecalis A-20688, 32 µg/mL. In addition, the ED50 in the test with S. aureus A9537 came to 12.5 mg/kg. The MIC in test [4] turned out to be 4 µg/mL.

These data come from patent US4272437A, “Antibacterial agents, and 4-thio azetidinone intermediates” (priority 1979, dated 1981).
